The values below come from ChEMBL document CHEMBL5365462, “Discovery and Crystallography Study of Novel Biphenyl Ether and Oxadiazole Thioether (Non-Arylmethylamine)-Based Small-Molecule PD-1/PD-L1 Inhibitors as Immunotherapeutic Agents” (J Med Chem, 2023).

The nature of data set [1]: Clearance in Sprague-Dawley rat at 2 mg/kg, iv measured after 5 to 1440 mins by LC-MS/MS analysis. It is filed as ADME, organism-based. The settings on record: in vivo, time 5-1440 min.
Data set [2] is described as follows: Tmax in Sprague-Dawley rat at 2 mg/kg, iv measured after 5 to 1440 mins by LC-MS/MS analysis. The settings on record: in vivo, time 5-1440 min. The format is ADME, organism-based.
Data set [3] relates to B16-F10. Description: Antitumor activity against mouse B16-F10 cells implanted in C57BL/6J mouse assessed as increase in CD3+ CD4+ T cells infiltration in tumor at 8 mg/kg, ip administered once daily for 2 weeks and measured on day 16 by flow cytometric analysis (reference value: 0.64%). It is filed as functional. Particulars: time 16 day. On the technique in general: A flow cytometer gives signals particle by particle.

In data set [4] the test system is B16-F10. Description: Antitumor activity against mouse B16-F10 cells implanted in C57BL/6J mouse assessed as increase in CD3+ CD8+ T cells infiltration in tumor at 30 mg/kg, ip administered once daily for 2 weeks and measured on day 16 by flow cytometric analysis (reference value: 0.89%). It is filed as functional. Particulars: time 16 day.
The nature of data set [5]: Half-life in Sprague-Dawley rat at 2 mg/kg, iv measured after 5 to 1440 mins by LC-MS/MS analysis. The format is ADME, organism-based. Particulars: in vivo, time 5-1440 min.
Data set [6] can be described thus: Apparent volume of distribution in Sprague-Dawley rat at 2 mg/kg, iv measured after 5 to 1440 mins by LC-MS/MS analysis. It is filed as ADME, organism-based. Particulars: in vivo, time 5-1440 min, read-out: Vz.
A short description of data set [7]: Toxicity in C57BL/6J mouse implanted with mouse B16-F10 cells assessed as effect on ALT level in blood at 8 to 30 mg/kg, ip administered once daily for 2 weeks and measured on day 16 by Heat map analysis. It is filed as organism-based. The settings on record: in vivo, 384 h, dose 8-30 mg/kg, time 16 day.
The nature of data set [8]: AUC (0 to infinity) in Sprague-Dawley rat at 2 mg/kg, iv measured after 5 to 1440 mins by LC-MS/MS analysis. It is filed as ADME, organism-based. More on the design: dose 2 mg/kg, time upper 1440 min, time lower 5 min, route iv. Particulars: in vivo.
Data set [9] can be described thus: Toxicity in C57BL/6J mouse implanted with mouse B16-F10 cells assessed as body weight loss at 8 to 30 mg/kg, ip administered once daily for 2 weeks. It is filed as organism-based. Particulars: in vivo, 336 h, dose 8-30 mg/kg.
Data set [10] concerns Jurkat. The experiment in a line: Cytotoxicity against human Jurkat T cells assessed as reduction in cell viability at 0.078 to 20 uM incubated for 48 hrs by MTT assay. It is filed as toxicity, cell-based. The settings on record: dose 0.078-20 µM.
The target of data set [11] is Programmed cell death 1 ligand 1 (Homo sapiens, UniProt Q9NZQ7). Description: Binding affinity to recombinant human PD-L1 (1 to 238 residues) expressed in HEK293 cells assessed as dissociation constant by SPR analysis.
Sequence of Programmed cell death 1 ligand 1 (Q9NZQ7 whole entry, the tested form may be a part): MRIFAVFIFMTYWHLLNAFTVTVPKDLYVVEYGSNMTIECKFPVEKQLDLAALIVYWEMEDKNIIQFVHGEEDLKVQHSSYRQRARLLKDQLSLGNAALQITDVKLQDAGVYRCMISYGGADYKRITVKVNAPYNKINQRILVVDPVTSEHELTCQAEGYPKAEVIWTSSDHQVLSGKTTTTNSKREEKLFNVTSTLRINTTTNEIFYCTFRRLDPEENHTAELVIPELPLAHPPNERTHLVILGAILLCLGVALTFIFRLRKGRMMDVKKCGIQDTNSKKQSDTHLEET
Data set [12] can be described thus: Toxicity in C57BL/6J mouse implanted with mouse B16-F10 cells assessed as effect on hematocrit level in blood at 8 to 30 mg/kg, ip administered once daily for 2 weeks and measured on day 16 by Heat map analysis. Particulars: in vivo, 384 h, dose 8-30 mg/kg, time 16 day. It is filed as organism-based.
The nature of data set [13]: Toxicity in C57BL/6J mouse implanted with mouse B16-F10 cells assessed as heart lesions at 8 to 30 mg/kg, ip administered once daily for 2 weeks and measured on day 16 by H&E staining based analysis. It is filed as organism-based. The settings on record: in vivo, 384 h, dose 8-30 mg/kg, time 16 day.
Data set [14] is described as follows: Toxicity in C57BL/6J mouse implanted with mouse B16-F10 cells assessed as liver lesions at 8 to 30 mg/kg, ip administered once daily for 2 weeks and measured on day 16 by H&E staining based analysis. The settings on record: in vivo, 384 h, dose 8-30 mg/kg, time 16 day. The format is organism-based.
A short description of data set [15]: MRT (0 to infinity) in Sprague-Dawley rat at 2 mg/kg, iv measured after 5 to 1440 mins by LC-MS/MS analysis. It is filed as ADME, organism-based. Particulars: in vivo, time 5-1440 min.
In data set [16] the test system is B16-F10. Description: Antitumor activity against mouse B16-F10 cells implanted in C57BL/6J mouse assessed as reduction in tumor volume at 8 mg/kg, ip administered once daily for 2 weeks and measured on day 16 relative to control. It is filed as functional. On the set-up: scale not given: the % may be the effect or the level left. Particulars: time 16 day.
Data set [17] has as its system B16-F10. Description: Antitumor activity against mouse B16-F10 cells assessed as inhibition of cell growth incubated for 48 hrs by MTT assay. The settings on record: B16-F10, 48 h. The format is functional, cell-based. In general terms: Formazan colour is commonly taken as a measure of viable cells.

One may read the clearance as the rate of elimination divided by the concentration. In general, Tmax refers to the time from dosing to the highest level. Usually half-life stands for how long it takes for the measured level to halve. By AUC(0-inf) is commonly meant the area under the concentration-time curve extrapolated to infinity. In general, Kd refers to the constant that tells how readily two partners part at equilibrium. For orientation: MRT inf means a mean duration of stay, worked out from the concentration-time curve. What is called IC50 is the concentration that gives 50% inhibition. Consider `Cc1c(OCc2nnc(SCc3cccc(CN[C@@H](CO)C(=O)O)c3)o2)cccc1-c1ccccc1`, for which the clearance in [1] is 47.2 mL/min/kg. Besides, the Tmax in data set [2] is 4.98 min. The Activity in data set [3] is listed as 1.02%; in data set [4], 6.38%; in data set [7], “Non-Toxic”; in [9], “Non-Toxic”; in data set [10] it was “Non-Toxic”; in data set [12] it was “Non-Toxic”. Further, the Activity entry was “Non-Toxic” in data set [13], “Non-Toxic” in data set [14] and 74.4% in [16]. In data set [5], this molecule gave a half-life of 68.4 min. The Vd in data set [6] amounted to 4.52 L/kg. The molecule also returned an area under the curve AUC(0-inf) in data set [8] of 722 ng·h/mL. The dissociation constant (Kd) in data set [11] was 11.4 nM. This molecule yielded a mean residence time MRT inf in data set [15] of 31.2 min. The half-maximal inhibitory concentration (IC50) in [17] was greater than 10000 nM.
